According to US20240209001A1, “HETEROCYCLIC DERIVATIVES AS JANUS KINASE INHIBITORS” (CHIESI FARMACEUTICI S.P. A., priority 2021, published 2024):

Columns and labels:
TYK2 = TYK2 (Homo sapiens (Human), UniProt P29597); test: Biochemical potency on Tyk2, TR-FRET LANCE Ultra kinase assay (compounds 1-92); conditions: ATP at Km, read-out: Tyk2 inhibitory activity (pIC50 class) (converted)
Method: (§1) Biochemical Potency on JAK1, JAK2, JAK3 and Tyk2 Assay Principle The objective of this study was to assess the capability of compounds to inhibit all 4 JAK isoforms activity in a cell-free environment. Assay for JAK 1, JAK 2, JAK 3 and TYK2 were performed by Time-resolved fluorescence resonance energy transfer (TR-FRET) technology. It consists in the interaction of two labelled binding partners detected by the energy transfer from an excited donor to an acceptor dye and measurement of light emission by the acceptor dye. LANCE Ultra kinase assay was used. In presence of JAK 1, JAK 2, JAK 3 and TYK2 kinases and ATP (corresponding to Km), the ULight peptide substrate (LANCE Ulight-JAK-1 ([…]) Peptide, Perkin Elmer, TRF0121) is phosphorylated. It is then captured by Eu-anti-phospho-substrate antibody (LANCE Eu-W1024 Anti-phosphotyrosine (PT66), Perkin Elmer, AD0069), which bring the Eu-chelate donor and ULight acceptor dyes into close proximity. Upon excitation at 320 nm, the Eu-chelate transfers its energy to the ULight dye, resulting in a fluorescent light emission at 665 nm. Compound Testing Serial dilutions of compounds in pure DMSO are prepared from 10 mM DMSO stock solutions. Compounds were tested in 384-well plate for 11 consecutive 5-fold dilutions starting from 20 μM highest concentration (20 μM-[…]). 200 nL of compound were transferred from mother plate to test plate by using Mosquito (TTP labtech). Assay was performed in 384-well Perkin Elmer test plate in 20 μL assay volume (kinase reaction) and 40 μL total volume (stopping reagent and antibody detection reagents). In 10 μL of substrate solution (peptide+ATP) 30/50/20/10 nM of peptide and 20/0.7/0.2/12 μM of ATP were added for JAK 1, JAK 2, JAK 3 and TYK2 respectively. 10 μL of enzyme solution was added to kinase reaction at these concentrations: 0.15/0.083/0.025/0.144 ng/μL of JAK 1, JAK 2, JAK 3 and TYK2 respectively. After shaking and 1.5 h of incubation at r.t., 20 μL of Stop (10 μL EDTA) and Detection mixture (10 μL Europium-anti-phospho antibody, final: 0.5 nM) were added. Reading was performed after 1 h of incubation on a EnVision 2104 reader (Perkin Elmer). Calculation of IC50 data, curves and QC analysis was performed by using Excel tool and GraphPadPrism software, v9. Briefly, individual concentration-effect curves are generated by plotting the logarithm of the tested concentration of tested compounds (X) vs. corresponding percent inhibition values (Y) using least squares (ordinary) fit. Best fit IC50 values are calculated using Log(inhibitor) vs. normalized response-Variable slope equation, where Y=100/(1+10^((Log IC50-X)*HillSlope)). QC criteria parameters (Z', S:B, R2, HillSlope) were checked for every IC50 curve. Calculation of IC50 data, curves and QC analysis were made using Excel tools and GraphPadPrism software. QC criteria parameters: Z'≥0.5, Hill Slope range 0.5 to 5, S:B>2.

JAK 3 = JAK 3 (Homo sapiens (Human), UniProt P52333); test: Biochemical potency on JAK3, TR-FRET LANCE Ultra kinase assay (compounds 1-92); conditions: ATP at Km, read-out: JAK3 inhibitory activity (pIC50 class) (converted)
JAK 3, sequence (P52333 whole entry): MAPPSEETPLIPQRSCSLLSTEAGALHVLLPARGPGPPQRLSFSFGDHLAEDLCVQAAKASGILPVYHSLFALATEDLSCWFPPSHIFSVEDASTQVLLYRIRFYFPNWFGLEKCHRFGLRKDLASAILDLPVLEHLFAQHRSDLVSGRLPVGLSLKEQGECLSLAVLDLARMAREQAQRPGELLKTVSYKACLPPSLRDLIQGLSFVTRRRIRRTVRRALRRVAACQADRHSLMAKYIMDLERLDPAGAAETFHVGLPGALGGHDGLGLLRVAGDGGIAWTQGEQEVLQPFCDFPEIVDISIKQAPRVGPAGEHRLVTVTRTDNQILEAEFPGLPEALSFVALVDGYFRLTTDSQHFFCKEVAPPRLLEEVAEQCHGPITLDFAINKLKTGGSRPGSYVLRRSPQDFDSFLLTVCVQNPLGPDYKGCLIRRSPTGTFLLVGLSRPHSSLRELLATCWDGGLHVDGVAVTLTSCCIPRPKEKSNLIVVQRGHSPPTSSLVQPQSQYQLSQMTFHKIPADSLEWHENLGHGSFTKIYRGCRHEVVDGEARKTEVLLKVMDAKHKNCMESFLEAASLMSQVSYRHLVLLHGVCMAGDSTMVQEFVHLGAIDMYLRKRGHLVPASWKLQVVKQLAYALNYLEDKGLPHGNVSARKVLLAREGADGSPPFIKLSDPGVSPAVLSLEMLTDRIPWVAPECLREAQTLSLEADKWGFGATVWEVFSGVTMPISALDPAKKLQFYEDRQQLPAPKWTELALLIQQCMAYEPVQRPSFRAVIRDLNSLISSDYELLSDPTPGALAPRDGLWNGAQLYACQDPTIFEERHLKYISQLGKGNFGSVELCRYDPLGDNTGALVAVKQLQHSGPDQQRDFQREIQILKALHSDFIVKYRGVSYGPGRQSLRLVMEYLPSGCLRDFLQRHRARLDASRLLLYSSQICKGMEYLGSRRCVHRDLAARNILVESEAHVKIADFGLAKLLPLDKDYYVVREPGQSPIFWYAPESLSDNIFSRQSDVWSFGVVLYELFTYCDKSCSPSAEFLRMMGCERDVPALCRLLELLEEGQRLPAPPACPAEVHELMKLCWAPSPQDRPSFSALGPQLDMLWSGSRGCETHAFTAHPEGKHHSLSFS
Method: as §1

JAK 1 = JAK 1 (Homo sapiens (Human), UniProt P23458); test: Biochemical potency on JAK1, TR-FRET LANCE Ultra kinase assay (compounds 1-92); conditions: ATP at Km, read-out: JAK1 inhibitory activity (pIC50 class) (converted)
JAK 1, sequence (P23458 whole entry): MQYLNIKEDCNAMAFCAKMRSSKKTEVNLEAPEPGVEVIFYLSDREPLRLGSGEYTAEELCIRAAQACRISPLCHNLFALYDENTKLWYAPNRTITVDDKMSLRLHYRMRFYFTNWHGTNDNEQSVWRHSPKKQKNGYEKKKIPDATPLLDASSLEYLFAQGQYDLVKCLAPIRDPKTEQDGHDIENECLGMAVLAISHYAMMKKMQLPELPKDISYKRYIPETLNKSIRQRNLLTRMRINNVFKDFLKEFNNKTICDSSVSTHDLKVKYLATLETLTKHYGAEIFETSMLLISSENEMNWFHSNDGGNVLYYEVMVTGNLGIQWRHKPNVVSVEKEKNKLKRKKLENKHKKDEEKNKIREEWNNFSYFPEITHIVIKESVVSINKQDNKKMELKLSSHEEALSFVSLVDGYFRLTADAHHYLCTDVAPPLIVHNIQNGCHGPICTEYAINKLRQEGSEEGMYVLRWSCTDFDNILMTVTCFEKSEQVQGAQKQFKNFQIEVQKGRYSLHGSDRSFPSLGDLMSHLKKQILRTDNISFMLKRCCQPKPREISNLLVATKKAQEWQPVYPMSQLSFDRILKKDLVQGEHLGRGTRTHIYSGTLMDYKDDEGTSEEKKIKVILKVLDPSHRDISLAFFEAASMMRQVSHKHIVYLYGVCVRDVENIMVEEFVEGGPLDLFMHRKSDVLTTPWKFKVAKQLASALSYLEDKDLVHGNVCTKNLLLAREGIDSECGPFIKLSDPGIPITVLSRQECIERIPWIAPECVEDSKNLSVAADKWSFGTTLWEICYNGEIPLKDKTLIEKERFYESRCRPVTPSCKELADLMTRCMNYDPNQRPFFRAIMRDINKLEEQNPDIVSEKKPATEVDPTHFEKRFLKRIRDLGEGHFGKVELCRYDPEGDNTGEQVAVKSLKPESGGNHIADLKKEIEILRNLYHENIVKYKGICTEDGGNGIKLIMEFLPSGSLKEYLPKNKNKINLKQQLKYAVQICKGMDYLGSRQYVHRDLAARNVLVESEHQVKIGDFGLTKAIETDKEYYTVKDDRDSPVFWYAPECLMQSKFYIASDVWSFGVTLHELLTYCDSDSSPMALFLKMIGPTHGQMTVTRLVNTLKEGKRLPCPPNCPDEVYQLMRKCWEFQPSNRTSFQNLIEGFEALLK
Method: as §1

JAK 2 = JAK 2 (Homo sapiens (Human), UniProt O60674); test: Biochemical potency on JAK2, TR-FRET LANCE Ultra kinase assay (compounds 1-92); conditions: ATP at Km, read-out: JAK2 inhibitory activity (pIC50 class) (converted)
JAK 2, sequence (O60674 whole entry): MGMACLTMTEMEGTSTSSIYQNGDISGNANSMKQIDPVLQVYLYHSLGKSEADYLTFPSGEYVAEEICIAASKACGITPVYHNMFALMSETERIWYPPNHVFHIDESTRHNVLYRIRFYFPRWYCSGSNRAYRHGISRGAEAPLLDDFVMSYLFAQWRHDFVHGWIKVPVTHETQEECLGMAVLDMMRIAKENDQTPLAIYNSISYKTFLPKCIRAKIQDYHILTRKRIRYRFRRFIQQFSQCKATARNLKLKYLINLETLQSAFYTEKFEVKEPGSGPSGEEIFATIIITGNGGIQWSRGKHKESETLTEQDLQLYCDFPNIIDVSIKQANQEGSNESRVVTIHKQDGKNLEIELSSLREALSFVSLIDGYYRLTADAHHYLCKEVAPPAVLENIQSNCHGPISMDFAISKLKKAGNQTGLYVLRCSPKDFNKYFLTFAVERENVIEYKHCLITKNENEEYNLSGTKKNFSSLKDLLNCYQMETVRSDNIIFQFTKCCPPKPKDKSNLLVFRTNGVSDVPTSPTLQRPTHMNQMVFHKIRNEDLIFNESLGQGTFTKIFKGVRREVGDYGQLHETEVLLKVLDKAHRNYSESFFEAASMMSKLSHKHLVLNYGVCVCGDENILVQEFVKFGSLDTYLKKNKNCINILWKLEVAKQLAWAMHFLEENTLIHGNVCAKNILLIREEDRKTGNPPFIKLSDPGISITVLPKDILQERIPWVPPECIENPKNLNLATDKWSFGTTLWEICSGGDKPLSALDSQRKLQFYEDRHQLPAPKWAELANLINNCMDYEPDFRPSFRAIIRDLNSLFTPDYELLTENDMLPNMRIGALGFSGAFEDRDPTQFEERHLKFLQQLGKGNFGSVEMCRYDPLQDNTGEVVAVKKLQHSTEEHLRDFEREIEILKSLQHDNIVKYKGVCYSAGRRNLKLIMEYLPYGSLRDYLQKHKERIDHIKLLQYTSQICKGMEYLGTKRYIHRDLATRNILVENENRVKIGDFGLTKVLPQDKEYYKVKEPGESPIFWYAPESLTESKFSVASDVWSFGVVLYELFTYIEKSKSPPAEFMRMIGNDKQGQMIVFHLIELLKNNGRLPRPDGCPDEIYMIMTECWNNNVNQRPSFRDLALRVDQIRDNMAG
Method: as §1

TYK2, sequence (P29597 whole entry, canonical isoform): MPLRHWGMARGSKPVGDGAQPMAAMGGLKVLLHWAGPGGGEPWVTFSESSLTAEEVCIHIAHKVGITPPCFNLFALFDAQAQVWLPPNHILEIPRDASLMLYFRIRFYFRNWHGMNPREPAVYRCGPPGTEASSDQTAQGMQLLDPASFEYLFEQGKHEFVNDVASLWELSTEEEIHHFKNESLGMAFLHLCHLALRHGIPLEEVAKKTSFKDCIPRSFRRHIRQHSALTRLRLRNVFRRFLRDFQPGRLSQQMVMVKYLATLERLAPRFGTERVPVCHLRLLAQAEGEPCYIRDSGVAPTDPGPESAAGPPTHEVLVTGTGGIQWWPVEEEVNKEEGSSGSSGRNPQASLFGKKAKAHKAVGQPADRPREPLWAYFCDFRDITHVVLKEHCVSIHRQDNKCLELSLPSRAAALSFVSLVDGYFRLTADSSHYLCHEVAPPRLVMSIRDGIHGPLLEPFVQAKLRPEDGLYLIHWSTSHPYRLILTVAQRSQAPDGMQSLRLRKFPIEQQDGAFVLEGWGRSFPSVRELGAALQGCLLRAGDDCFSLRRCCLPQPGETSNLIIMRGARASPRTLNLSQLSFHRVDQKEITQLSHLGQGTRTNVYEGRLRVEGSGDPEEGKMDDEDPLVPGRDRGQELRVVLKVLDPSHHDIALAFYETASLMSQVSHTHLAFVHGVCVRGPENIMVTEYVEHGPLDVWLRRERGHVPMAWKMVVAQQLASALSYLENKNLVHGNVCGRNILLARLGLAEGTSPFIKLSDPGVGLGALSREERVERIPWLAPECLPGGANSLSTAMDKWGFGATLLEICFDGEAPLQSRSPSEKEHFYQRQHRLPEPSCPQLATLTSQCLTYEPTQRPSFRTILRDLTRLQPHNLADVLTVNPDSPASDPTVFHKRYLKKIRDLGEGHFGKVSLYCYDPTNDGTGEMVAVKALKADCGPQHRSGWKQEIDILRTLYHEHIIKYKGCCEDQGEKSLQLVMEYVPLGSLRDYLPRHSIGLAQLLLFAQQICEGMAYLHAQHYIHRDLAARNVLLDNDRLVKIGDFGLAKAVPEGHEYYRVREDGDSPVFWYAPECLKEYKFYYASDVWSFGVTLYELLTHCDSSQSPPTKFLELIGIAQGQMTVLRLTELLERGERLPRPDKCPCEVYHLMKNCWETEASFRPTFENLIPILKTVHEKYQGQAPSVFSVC

Row | Structure (SMILES) | IC50 (TYK2) [nM] | IC50 (JAK 3) [nM] | IC50 (JAK 1) [nM] | IC50 (JAK 2) [nM]
1 | CNS(=O)(=O)c1ccc(-n2nc(NCCN3CCOCC3)c3cnc(-c4cnn5cccnc45)cc32)c(OC)c1 [Example 50, 3-methoxy-N-methyl-4-(3-((2-morpholinoethyl)amino)-6-(pyrazolo[1,5-a]pyrimidin-3-yl)-1H-pyrazolo[4,3-c]pyridin-1-yl)benzenesulfonamide] | 5.01 to 50.1 | ≤ 5.01 | ≤ 5.01 | ≤ 5.01
2 | COc1cc(C#N)ccc1-n1nc(C)c2cnc(-c3cnn4cccnc34)cc21 [Example 15, 3-methoxy-4-(3-methyl-6-(pyrazolo[1,5-a]pyrimidin-3-yl)-1H-pyrazolo[4,3-c]pyridin-1-yl)benzonitrile] | > 50.1 | 5.01 to 50.1 | 5.01 to 50.1 | 5.01 to 50.1
3 | CNCC(=O)Nc1nn(-c2ccc(NS(C)(=O)=O)cc2OC)c2cc(-c3cnn4cccnc34)ncc12 [Example 80, N-(1-(2-methoxy-4-(methylsulfonamido)phenyl)-6-(pyrazolo[1,5-a]pyrimidin-3-yl)-1H-pyrazolo[4,3-c]pyridin-3-yl)-2-(methylamino)acetamide] | 5.01 to 50.1 | ≤ 5.01 | ≤ 5.01 | ≤ 5.01
4 | COc1cc(NS(C)(=O)=O)ccc1-n1nc(NC(=O)C2CCN(C)CC2)c2cnc(-c3cnn4cccnc34)cc21 [Example 41, N-(1-(2-methoxy-4-(methylsulfonamido)phenyl)-6-(pyrazolo[1,5-a]pyrimidin-3-yl)-1H-pyrazolo[4,3-c]pyridin-3-yl)-1-methylpiperidine-4-carboxamide] | 5.01 to 50.1 | ≤ 5.01 | ≤ 5.01 | ≤ 5.01
5 | CCCS(=O)(=O)Nc1ccc(-n2nc(NC(=O)CCN3CCN(C)CC3)c3cnc(-c4cnn5cccnc45)cc32)c(OC)c1 [Example 82, N-(1-(2-methoxy-4-(propylsulfonamido)phenyl)-6-(pyrazolo[1,5-a]pyrimidin-3-yl)-1H-pyrazolo[4,3-c]pyridin-3-yl)-3-(4-methylpiperazin-1-yl)propanamide] | 5.01 to 50.1 | 5.01 to 50.1 | 5.01 to 50.1 | 5.01 to 50.1
6 | COc1cc(NC(=O)c2ccccc2)ccc1-n1nc(C)c2cnc(-c3cnn4cccnc34)cc21 [Example 74, N-(3-methoxy-4-(3-methyl-6-(pyrazolo[1,5-a]pyrimidin-3-yl)-1H-pyrazolo[4,3-c]pyridin-1-yl)phenyl)benzamide] | > 50.1 | 5.01 to 50.1 | 5.01 to 50.1 | 5.01 to 50.1

Further lines, results first:

Row | IC50 (TYK2) [nM] | IC50 (JAK 3) [nM] | IC50 (JAK 1) [nM] | IC50 (JAK 2) [nM] | Structure (SMILES)
7 | 5.01 to 50.1 | ≤ 5.01 | ≤ 5.01 | ≤ 5.01 | CCCS(=O)(=O)Nc1ccc(-n2nc(C)c3cnc(-c4cnn5cccnc45)cc32)c(OC)c1 [Example 4, N-(3-methoxy-4-(3-methyl-6-(pyrazolo[1,5-a]pyrimidin-3-yl)-1H-pyrazolo[4,3-c]pyridin-1-yl)phenyl)propane-1-sulfonamide]
8 | > 50.1 | 5.01 to 50.1 | 5.01 to 50.1 | 5.01 to 50.1 | COc1cc(N)ccc1-n1nc(C)c2cnc(-c3cnn4cccnc34)cc21 [Example 17, 3-methoxy-4-(3-methyl-6-(pyrazolo[1,5-a]pyrimidin-3-yl)-1H-pyrazolo[4,3-c]pyridin-1-yl)aniline]
9 | 5.01 to 50.1 | ≤ 5.01 | ≤ 5.01 | ≤ 5.01 | COc1cc(CNS(=O)(=O)C2CC2)ccc1-n1nc(C)c2cnc(-c3cnn4cccnc34)cc21 [Example 64, N-(3-methoxy-4-(3-methyl-6-(pyrazolo[1,5-a]pyrimidin-3-yl)-1H-pyrazolo[4,3-c]pyridin-1-yl)benzyl)cyclopropanesulfonamide]
10 | 5.01 to 50.1 | ≤ 5.01 | ≤ 5.01 | ≤ 5.01 | Cc1nn(-c2ccc(CNS(C)(=O)=O)cc2OC(F)F)c2cc(-c3cnn4cccnc34)ncc12 [Example 61, N-(3-(difluoromethoxy)-4-(3-methyl-6-(pyrazolo[1,5-a]pyrimidin-3-yl)-1H-pyrazolo[4,3-c]pyridin-1-yl)benzyl)methanesulfonamide]
